Patent US7618975B2, “4-arylamino-quinazolines and analogs as activators of caspases and inducers of apoptosis and the use thereof” (Myriad Pharmaceuticals, Inc., priority 2003, dated 2009)

Each compound was assayed on T-47D cells (assay: Caspase cascade activation (N-(Ac-DEVD)-N′-ethoxycarbonyl-R110 fluorogenic substrate) in T-47D cells). Conditions: T-47D, 24 hr; ratio of net RFU to control.
Assay type: cell-based, Human
Also: test concentration or dose not given here.

Going from `COc1ccc(N(C)c2ccnc3ccccc23)cc1` [Example 66, (4-Methoxy-phenyl)-methyl-(quinolin-4-yl)-amine] to `COc1ccc(N(C)c2nc(CCl)nc3ccccc23)cc1` [Example 73, (2-Chloromethyl-quinazolin-4-yl)-(4-methoxy-phenyl)-methyl-amine], the “Caspase activity Ratio T-47D (24 hr)” value falls from 7.2 to 6.2.

First: COc1ccc(N(C)c2nc(CO)nc3ccccc23)cc1 [Example 76]
Second: COc1ccc(N(C)c2nc(CN(C)C)nc3ccccc23)cc1 [Example 77, (2-Dimethylaminomethyl-quinazolin-4-yl)-(4-methoxy-phenyl)-methyl-amine]
The “Caspase activity Ratio T-47D (24 hr)” value of the first is lower: 5.6 for the first, 5.7 for the second.

Compared with `Cc1nc(Nc2ccc(OC(F)F)cc2)c2ccccc2n1` [Example 78, (4-Difluoromethoxy-phenyl)-(2-methyl-quinazolin-4-yl)-amine], `Cc1nc(Nc2ccc(OC(C)C)cc2)c2ccccc2n1` [Example 80, (4-Isopropoxy-phenyl)-(2-methyl-quinazolin-4-yl)-amine] is higher in “Caspase activity Ratio T-47D (24 hr)” value: 0.6 for the first, 8.3 for the second.

First: COc1ccc(Nc2nc(C)nc3ccccc23)cc1F [Example 79, (3-Fluoro-4-methoxy-phenyl)-(2-methyl-quinazolin-4-yl)-amine]
Second: COc1ccc(Nc2nc(C)nc3ccccc23)c(F)c1 [Example 96, (2-Fluoro-4-methoxy-phenyl)-(2-methyl-quinazolin-4-yl)-amine]
The “Caspase activity Ratio T-47D (24 hr)” value of the first is lower: 0.7 for the first, 1.0 for the second.

Going from `CCc1ccc(Nc2nc(C)nc3ccccc23)cc1` [Example 81, (4-Ethyl-phenyl)-(2-methyl-quinazolin-4-yl)-amine] to `CCc1ccc(N(C)c2nc(C)nc3ccccc23)cc1` [Example 87, (4-Ethyl-phenyl)-(2-methyl-quinazolin-4-yl)-methyl-amine], the “Caspase activity Ratio T-47D (24 hr)” value rises from 1.9 to 6.3.

Going from `COc1cc(OC)c(Nc2nc(C)nc3ccccc23)c(OC)c1` [Example 82, (2-Methyl-quinazolin-4-yl)-(2,4,6-trimethoxy-phenyl)-amine] to `COc1cc(OC)c(N(C)c2nc(C)nc3ccccc23)c(OC)c1` [Example 88, (2-Methyl-quinazolin-4-yl)-(2,4,6-trimethoxy-phenyl)-methyl-amine], the “Caspase activity Ratio T-47D (24 hr)” value rises from 1.0 to 7.6.

Going from `Cc1nc(N(C)c2ccc(OC(F)F)cc2)c2ccccc2n1` [Example 84, (4-Difluoromethoxy-phenyl)-(2-methyl-quinazolin-4-yl)-methyl-amine] to `Cc1nc(N(C)c2ccc(OC(C)C)cc2)c2ccccc2n1` [Example 86, (4-Isopropoxy-phenyl)-(2-methyl-quinazolin-4-yl)-methyl-amine], the “Caspase activity Ratio T-47D (24 hr)” value falls from 6.7 to 6.2.

Going from `COc1ccc(N(C)c2nc(C)nc3ccccc23)cc1F` [Example 85, (3-Fluoro-4-methoxy-phenyl)-(2-methyl-quinazolin-4-yl)-methyl-amine] to `COc1ccc(N(C)c2nc(C)nc3ccccc23)c(F)c1` [Example 99, (2-Fluoro-4-methoxy-phenyl)-(2-methyl-quinazolin-4-yl)-methyl-amine], the “Caspase activity Ratio T-47D (24 hr)” value falls from 7.6 to 6.9.

Compared with `COc1ccc(N(C)c2nc(Cl)nc3cccc(Cl)c23)cc1` [Example 90, (2,5-Dichloro-quinazolin-4-yl)-(4-methoxy-phenyl)-methyl-amine], `COc1ccc(N(C)c2nc(C)nc3cccc(OC)c23)cc1` [Example 91, (5-Methoxy-2-methyl-quinazolin-4-yl)-(4-methoxy-phenyl)-methyl-amine] is lower in “Caspase activity Ratio T-47D (24 hr)” value: 10.6 for the first, 8.3 for the second.

First: COc1ccc(N(C)c2nc(C)nc3ncccc23)cc1 [Example 92, (4-Methoxy-phenyl)-(2-methyl-pyrido[2,3-d]pyrimidin-4-yl)-methyl-amine]
Second: Cc1nc(N(C)c2ccc(O)cc2)c2ccccc2n1 [Example 93, (4-Hydroxy-phenyl)-(2-methyl-quinazolin-4-yl)-methyl-amine]
The “Caspase activity Ratio T-47D (24 hr)” value of the first is lower: 10.1 for the first, 11.3 for the second.

In the case of `COc1ccc(Nc2nc(C)nc3ccccc23)cn1` [Example 95, (2-Methyl-quinazolin-4-yl)-(6-methoxy-pyridin-3-yl)-amine], the “Caspase activity Ratio T-47D (24 hr)” value was 1.0.

Same assay, conditions: T-47D, 48 hr; ratio of net RFU to control

Going from `COc1ccc(N(C)c2nc(Cl)nc3ccc(Cl)cc23)cc1` [Example 60, (2,6-Dichloro-quinazolin-4-yl)-(4-methoxy-phenyl)-methyl-amine] to `COc1ccc(N(C)c2nc(Cl)nc3cc(Cl)ccc23)cc1` [Example 62, (2,7-Dichloro-quinazolin-4-yl)-(4-methoxy-phenyl)-methyl-amine], the “Caspase activity Ratio T-47D (48 hr)” value rises from 6.5 to 12.7.

Compared with `COc1ccc(N(C)c2nc(N(C)c3ccc(OC)cc3)c3cc(Cl)ccc3n2)cc1` [Example 61, 6-Chloro-N^2N^4-bis-(4-methoxy-phenyl)-N^2,N^4-dimethyl-quinazoline-2,4-diamine], `COc1ccc(N(C)c2nc(N(C)c3ccc(OC)cc3)c3c(Cl)cccc3n2)cc1` [Example 63, 5-Chloro-N^2,N^4-bis-(4-methoxy-phenyl)-N^2,N^4-dimethyl-quinazoline-2,4-diamine] is higher in “Caspase activity Ratio T-47D (48 hr)” value: 9.2 for the first, 10.9 for the second.

Compared with `COc1ccc(N(C)c2nc(OC(C)C)nc3cccc(Cl)c23)cc1` [Example 64, (5-Chloro-2-isopropoxy-quinazolin-4-yl)-(4-methoxy-phenyl)-methyl-amine], `COc1ccc(N(C)c2nc(Cl)nc3c(Cl)cccc23)cc1` [Example 89, (2,8-Dichloro-quinazolin-4-yl)-(4-methoxy-phenyl)-methyl-amine] is higher in “Caspase activity Ratio T-47D (48 hr)” value: 1 for the first, 7.8 for the second.

First: COc1ccc(N(C)c2ccnc3ccccc23)cc1 [Example 66, (4-Methoxy-phenyl)-methyl-(quinolin-4-yl)-amine]
Second: COc1ccc(N(C)c2nc(CCl)nc3ccccc23)cc1 [Example 73, (2-Chloromethyl-quinazolin-4-yl)-(4-methoxy-phenyl)-methyl-amine]
The “Caspase activity Ratio T-47D (48 hr)” value of the first is higher: 12.5 for the first, 5.7 for the second.

First: CN(c1ccc2c(c1)OCO2)c1nc(Cl)nc2ccccc12 [Example 67, (2-Chloro-quinazolin-4-yl)-(3,4-methylenedioxyphenyl)-methyl-amine]
Second: COc1ccc(N(C)c2nc(Cl)nc3ccccc23)cc1OC [Example 68, (2-Chloro-quinazolin-4-yl)-(3,4-dimethoxy-phenyl)-methyl-amine]
The “Caspase activity Ratio T-47D (48 hr)” value of the first is lower: 12.5 for the first, 13.1 for the second.

Compared with `CN(c1ccc(Oc2ccccc2)cc1)c1nc(Cl)nc2ccccc12` [Example 69, (2-Chloro-quinazolin-4-yl)-(4-phenoxy-phenyl)-methyl-amine], `COc1ccc(N(C)c2nc(-c3ccccc3)nc3ccccc23)cc1` [Example 83, (4-Methoxy-phenyl)-(2-phenyl-quinazolin-4-yl)-methyl-amine] is higher in “Caspase activity Ratio T-47D (48 hr)” value: 1 for the first, 10.8 for the second.

Compared with `CCCOc1ccc(N(C)c2nc(Cl)nc3ccccc23)cc1` [Example 70, (2-Chloro-quinazolin-4-yl)-(4-propoxy-phenyl)-methyl-amine], `CCOc1ccc(N(C)c2nc(Cl)nc3ccccc23)cc1` [Example 97, (2-Chloro-quinazolin-4-yl)-(4-ethoxy-phenyl)-methylamine] is lower in “Caspase activity Ratio T-47D (48 hr)” value: 11.3 for the first, 9.0 for the second.

Going from `COc1ccc(Oc2ncnc3ccccc23)cc1` [Example 71, 4-(4-Methoxy-phenoxy)-quinazoline] to `COc1ccc(N(C)c2nc(CO)nc3ccccc23)cc1` [Example 76], the “Caspase activity Ratio T-47D (48 hr)” value rises from 6.9 to 14.1.

Going from `COc1ccc(N(C)c2nc(CN(C)C)nc3ccccc23)cc1` [Example 77, (2-Dimethylaminomethyl-quinazolin-4-yl)-(4-methoxy-phenyl)-methyl-amine] to `CCOc1ccc(Nc2nc(Cl)nc3ccccc23)cc1` [Example 94, (2-Chloro-quinazolin-4-yl)-(4-ethoxy-phenyl)-amine], the “Caspase activity Ratio T-47D (48 hr)” value falls from 12.3 to 1.0.
